# Assay results published in PMC9578396, “Intrinsic Antibacterial Activity of Xeruborbactam In Vitro: Assessing Spectrum and Mode of Action” (Antimicrobial Agents and Chemotherapy, 2022).
# pIC50: −log10 of the molar value. Several values for one entry are separate records, joined by “and”; a condition that tells them apart may be missing. Equal values may be shown once. Read-outs that look alike come from different tables or passages of the source.
# What was measured:
# Staphylococcus aureus = test: MIC, Staphylococcus aureus (MSSA, MRSA); format: cell-based
# Description: (§1) Bacterial isolates were subjected to broth microdilution susceptibility testing, performed according to Clinical and Laboratory Standards Institute (CLSI) methods ([46]), using panels prepared in-house. Meropenem was purchased from Sandoz, and all other antibiotics were from Sigma-Aldrich. Xeruborbactam was synthesized at Qpex Biopharma, San Diego, CA. Avibactam was purchased from eNovation Chemicals LLC, Bridgewater, NJ, USA; zidebactam was from MedKoo Biosciences, Inc., Morrisville, NC, and nacubactam was from Advanced ChemBlocks, Hayward, CA. Durlobactam was synthesized at Acme Bioscience, Palo Alto, CA, USA.
# Streptococcus pneumoniae = test: MIC, Streptococcus pneumoniae; format: cell-based
# Description: as §1
# PBP2 [1] = system: PBP2; design: method as in PMID 18250190; settings: value in parentheses; E. coli MC1400; cited from earlier work
# PBP2 [2] = molecular target: T1, PBP2 (Pseudomonas aeruginosa, UniProt Q9X6V3); design: method as in PMID 18250190; settings: value in parentheses; P. aeruginosa PAO1; cited from earlier work
# T1 construct: Five microliters of total bacterial membrane preparation was mixed with 5 μL of a test compound; endogenous in cells
# Acinetobacter baumannii = test: Broth microdilution MIC (CLSI), Acinetobacter baumannii; format: cell-based
# In short: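 Test organisms were KPC-producing clinical isolates (some enriched for porin mutations), matched isolates that lost KPC plasmids, and engineered porin/efflux mutant strains. Susceptibility was measured by broth microdilution following CLSI methods, using panels prepared in-house.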
# PBP1b = molecular target: T2, PBP1b (Escherichia coli, UniProt P02919); design: method as in PMID 18250190; settings: read-out: IC50, PBP1b; value in parentheses; E. coli MC1400; cited from earlier work
# T2 construct: Five microliters of total bacterial membrane preparation was mixed with 5 μL of a test compound; endogenous in cells; host or cells: Escherichia coli ECM5497 (MG1655), total membrane preparation
# Enterobacterales = test: Broth microdilution MIC (CLSI), Enterobacterales; format: cell-based
# Description: as §1
# [3] = Staphylococcus aureus, ATCC 29213 / MSSA, ATCC 29213, MSSA, read-out: MIC
# [4] = Staphylococcus aureus, MRSA, sa001, MRSA, read-out: MIC
# [5] = Staphylococcus aureus, MRSA, sa010, MRSA, read-out: MIC
# [6] = Staphylococcus aureus, MRSA, sa013, MRSA, read-out: MIC
# [7] = Staphylococcus aureus, MRSA, sa014, MRSA, read-out: MIC
# [8] = Staphylococcus aureus, MRSA, sa148, MRSA, read-out: MIC
# [9] = Staphylococcus aureus, MRSA, sa150, MRSA, read-out: MIC
# [10] = Staphylococcus aureus, MRSA, sa151, MRSA, read-out: MIC
# [11] = Staphylococcus aureus, MRSA, sa152, MRSA, read-out: MIC
# [12] = Staphylococcus aureus, MRSA, sa153, MRSA, read-out: MIC
# [13] = Staphylococcus aureus, MRSA, sa278, MRSA, read-out: MIC
# [14] = Staphylococcus aureus, MRSA, sa279, MRSA, read-out: MIC
# [15] = Staphylococcus aureus, MRSA, sa280, MRSA, read-out: MIC
# [16] = Staphylococcus aureus, MRSA, sa281, MRSA, read-out: MIC
# [17] = Staphylococcus aureus, MSSA, sa007, MSSA, read-out: MIC
# [18] = Staphylococcus aureus, MSSA, sa015, MSSA, read-out: MIC
# [19] = Streptococcus pneumoniae, sp001, read-out: MIC
# [20] = Streptococcus pneumoniae, sp002, read-out: MIC
# [21] = Streptococcus pneumoniae, sp003, read-out: MIC
# [22] = Streptococcus pneumoniae, sp004, read-out: MIC
# [23] = Streptococcus pneumoniae, sp005, read-out: MIC
# [24] = Streptococcus pneumoniae, sp006, read-out: MIC
# [25] = Streptococcus pneumoniae, sp009, read-out: MIC
# [26] = Streptococcus pneumoniae, sp117, read-out: MIC
# [27] = Streptococcus pneumoniae, sp118, read-out: MIC
# [28] = Streptococcus pneumoniae, sp119, read-out: MIC
# [29] = Streptococcus pneumoniae, sp120, read-out: MIC
# [30] = Streptococcus pneumoniae, sp122, read-out: MIC
# [31] = Streptococcus pneumoniae, sp123, read-out: MIC
# [32] = Streptococcus pneumoniae, sp125, read-out: MIC
# [33] = Streptococcus pneumoniae, sp126, read-out: MIC
# [34] = Acinetobacter baumannii, strain ACM1013, ΔadeIJK
# [35] = Acinetobacter baumannii, strain ACM1014, ΔadeABC
# [36] = Acinetobacter baumannii, strain ACM1015, ΔadeIJK ΔadeABC
# [37] = Acinetobacter baumannii, strain ACM1027, adeN (AdeIJK overexpression)
# [38] = Acinetobacter baumannii, strain ACM1030, adeS (AdeABC overexpression)
# [39] = Staphylococcus aureus, MSSA, n = 12
# [40] = Streptococcus pneumoniae, S. pneumoniae strains, n = 18
# [41] = Enterobacterales, 1,028 isolates
# [42] = Carbapenem-resistant Acinetobacter baumannii, 505 isolates
# T2 sequence (P02919 whole entry): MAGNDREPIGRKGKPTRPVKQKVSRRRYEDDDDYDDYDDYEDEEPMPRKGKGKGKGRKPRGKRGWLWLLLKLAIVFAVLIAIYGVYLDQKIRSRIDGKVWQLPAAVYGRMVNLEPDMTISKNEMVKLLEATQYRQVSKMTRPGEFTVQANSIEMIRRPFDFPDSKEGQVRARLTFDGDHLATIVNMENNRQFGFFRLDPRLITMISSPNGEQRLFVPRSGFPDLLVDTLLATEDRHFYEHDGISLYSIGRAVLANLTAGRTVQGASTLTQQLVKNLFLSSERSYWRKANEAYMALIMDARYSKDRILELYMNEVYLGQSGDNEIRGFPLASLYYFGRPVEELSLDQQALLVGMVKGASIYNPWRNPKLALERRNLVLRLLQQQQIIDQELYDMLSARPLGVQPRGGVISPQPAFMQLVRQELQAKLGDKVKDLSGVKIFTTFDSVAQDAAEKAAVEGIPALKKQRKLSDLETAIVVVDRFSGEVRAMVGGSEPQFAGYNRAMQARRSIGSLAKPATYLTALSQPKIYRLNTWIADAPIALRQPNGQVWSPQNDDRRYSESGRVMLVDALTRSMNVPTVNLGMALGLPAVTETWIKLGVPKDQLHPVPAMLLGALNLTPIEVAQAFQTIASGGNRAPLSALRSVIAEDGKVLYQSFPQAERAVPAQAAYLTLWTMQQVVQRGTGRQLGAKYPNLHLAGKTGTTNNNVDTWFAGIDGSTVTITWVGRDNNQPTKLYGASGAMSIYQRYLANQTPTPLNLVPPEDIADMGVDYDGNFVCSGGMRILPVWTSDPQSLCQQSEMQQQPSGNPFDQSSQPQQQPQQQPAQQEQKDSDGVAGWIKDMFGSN
# T1 sequence (Q9X6V3 1-646): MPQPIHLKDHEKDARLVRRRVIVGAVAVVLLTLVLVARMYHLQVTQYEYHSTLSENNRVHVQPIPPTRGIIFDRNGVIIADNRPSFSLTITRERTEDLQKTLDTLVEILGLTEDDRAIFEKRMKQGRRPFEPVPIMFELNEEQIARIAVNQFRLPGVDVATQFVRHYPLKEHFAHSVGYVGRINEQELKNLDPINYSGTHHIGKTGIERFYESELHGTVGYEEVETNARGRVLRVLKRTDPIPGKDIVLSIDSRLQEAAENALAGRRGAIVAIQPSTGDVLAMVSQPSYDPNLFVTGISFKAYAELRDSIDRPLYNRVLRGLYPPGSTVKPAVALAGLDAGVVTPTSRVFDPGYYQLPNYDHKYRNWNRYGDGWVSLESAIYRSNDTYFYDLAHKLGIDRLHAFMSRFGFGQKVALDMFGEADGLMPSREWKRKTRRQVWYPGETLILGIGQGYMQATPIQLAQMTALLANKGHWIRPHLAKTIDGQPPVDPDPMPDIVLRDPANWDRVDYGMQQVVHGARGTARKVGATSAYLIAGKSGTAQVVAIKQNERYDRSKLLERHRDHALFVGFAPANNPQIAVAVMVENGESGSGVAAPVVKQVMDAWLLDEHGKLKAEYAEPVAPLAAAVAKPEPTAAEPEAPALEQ
compound,measurement,setting,value
C[C@@H](O)[C@H]1C(=O)N2C(C(=O)O)=C(S[C@@H]3CN[C@H](C(=O)N(C)C)C3)[C@H](C)[C@H]12 [Meropenem],MIC,Staphylococcus aureus; [3],0.06 µg/mL
same,MIC,Staphylococcus aureus; [4],16 µg/mL
same,MIC,Staphylococcus aureus; [5],32 µg/mL
same,MIC,Staphylococcus aureus; [6],16 µg/mL
same,MIC,Staphylococcus aureus; [7],8 µg/mL
same,MIC,Staphylococcus aureus; [8],32 µg/mL
same,MIC,Staphylococcus aureus; [9],32 µg/mL
same,MIC,Staphylococcus aureus; [10],32 µg/mL
same,MIC,Staphylococcus aureus; [11],4 µg/mL
same,MIC,Staphylococcus aureus; [12],32 µg/mL
same,MIC,Staphylococcus aureus; [13],32 µg/mL
same,MIC,Staphylococcus aureus; [14],4 µg/mL
same,MIC,Staphylococcus aureus; [15],4 µg/mL
same,MIC,Staphylococcus aureus; [16],32 µg/mL
same,MIC,"Staphylococcus aureus; Staphylococcus aureus, MSSA",0.125 µg/mL
same,MIC,Staphylococcus aureus; [17],0.25 µg/mL
same,MIC,Staphylococcus aureus; [18],0.25 µg/mL
same,MIC,"Staphylococcus aureus; sa002, MSSA",0.125 µg/mL
same,MIC,"Staphylococcus aureus; sa003, MSSA",0.125 µg/mL
same,MIC,"Staphylococcus aureus; sa004, MSSA",0.125 µg/mL
same,MIC,"Staphylococcus aureus; sa005, MSSA",0.125 µg/mL
same,MIC,"Staphylococcus aureus; sa006, MSSA",0.125 µg/mL
same,MIC,"Staphylococcus aureus; sa008, MSSA",0.125 µg/mL
same,MIC,"Staphylococcus aureus; sa009, MSSA",0.125 µg/mL
same,MIC,"Staphylococcus aureus; sa012, MSSA",0.125 µg/mL
same,MIC,Streptococcus pneumoniae; Streptococcus pneumoniae,0.125 µg/mL
same,MIC,Streptococcus pneumoniae; [19],≤ 0.03 µg/mL
same,MIC,Streptococcus pneumoniae; [20],≤ 0.03 µg/mL
same,MIC,Streptococcus pneumoniae; [21],≤ 0.03 µg/mL
same,MIC,Streptococcus pneumoniae; [22],0.25 µg/mL
same,MIC,Streptococcus pneumoniae; [23],0.06 µg/mL
same,MIC,Streptococcus pneumoniae; [24],0.25 µg/mL
same,MIC,Streptococcus pneumoniae; [25],0.25 µg/mL
same,MIC,Streptococcus pneumoniae; [26],0.25 µg/mL
same,MIC,Streptococcus pneumoniae; [27],0.25 µg/mL
same,MIC,Streptococcus pneumoniae; [28],0.25 µg/mL
same,MIC,Streptococcus pneumoniae; [29],0.25 µg/mL
same,MIC,Streptococcus pneumoniae; [30],4 µg/mL
same,MIC,Streptococcus pneumoniae; [31],0.25 µg/mL
same,MIC,Streptococcus pneumoniae; [32],0.25 µg/mL
same,MIC,Streptococcus pneumoniae; [33],0.25 µg/mL
same,MIC,Streptococcus pneumoniae; sp008,0.125 µg/mL
same,MIC,Streptococcus pneumoniae; sp121,0.125 µg/mL
same,pIC50,PBP2 [1],8.52
same,pIC50,PBP2 [2],7.30
same,MIC,"Acinetobacter baumannii; Acinetobacter baumannii, ATCC17978",0.25 µg/mL and 0.66 µM
same,MIC,Acinetobacter baumannii; [34],0.125 µg/mL
same,MIC,Acinetobacter baumannii; [35],0.125 µg/mL
same,MIC,Acinetobacter baumannii; [36],0.06 µg/mL
same,MIC,Acinetobacter baumannii; [37],1 µg/mL
same,MIC,Acinetobacter baumannii; [38],0.5 µg/mL
same,pIC50,PBP1b,5.47
O=C(O)c1c(F)ccc2c1OB(O)[C@@H]1C[C@H]21 [Xeruborbactam],MIC range,"Staphylococcus aureus; MSSA, n = 12",4 to 8 µg/mL
same,MIC,Staphylococcus aureus; [3],4 µg/mL
same,MIC,"Staphylococcus aureus; Staphylococcus aureus, MRSA, all the MRSA strains, n = 13, read-out: MIC",> 32 µg/mL
same,MIC,Staphylococcus aureus; [4],> 32 µg/mL
same,MIC,Staphylococcus aureus; [5],> 32 µg/mL
same,MIC,Staphylococcus aureus; [6],> 32 µg/mL
same,MIC,Staphylococcus aureus; [7],> 32 µg/mL
same,MIC,Staphylococcus aureus; [8],> 32 µg/mL
same,MIC,Staphylococcus aureus; [9],> 32 µg/mL
same,MIC,Staphylococcus aureus; [10],> 32 µg/mL
same,MIC,Staphylococcus aureus; [11],> 32 µg/mL
same,MIC,Staphylococcus aureus; [12],> 32 µg/mL
same,MIC,Staphylococcus aureus; [13],> 32 µg/mL
same,MIC,Staphylococcus aureus; [14],> 32 µg/mL
same,MIC,Staphylococcus aureus; [15],> 32 µg/mL
same,MIC,Staphylococcus aureus; [16],> 32 µg/mL
same,MIC,"Staphylococcus aureus; Staphylococcus aureus, MSSA, sa002, MSSA, read-out: MIC",8 µg/mL
same,MIC,"Staphylococcus aureus; Staphylococcus aureus, MSSA, sa003, MSSA, read-out: MIC",8 µg/mL
same,MIC,"Staphylococcus aureus; Staphylococcus aureus, MSSA, sa004, MSSA, read-out: MIC",8 µg/mL
same,MIC,"Staphylococcus aureus; Staphylococcus aureus, MSSA, sa005, MSSA, read-out: MIC",8 µg/mL
same,MIC,"Staphylococcus aureus; Staphylococcus aureus, MSSA, sa006, MSSA, read-out: MIC",8 µg/mL
same,MIC,Staphylococcus aureus; [17],8 µg/mL
same,MIC,"Staphylococcus aureus; Staphylococcus aureus, MSSA, sa008, MSSA, read-out: MIC",8 µg/mL
same,MIC,"Staphylococcus aureus; Staphylococcus aureus, MSSA, sa009, MSSA, read-out: MIC",8 µg/mL
same,MIC,"Staphylococcus aureus; Staphylococcus aureus, MSSA, sa011, MSSA, read-out: MIC",8 µg/mL
same,MIC,"Staphylococcus aureus; Staphylococcus aureus, MSSA, sa012, MSSA, read-out: MIC",8 µg/mL
same,MIC,Staphylococcus aureus; [18],8 µg/mL
same,MIC50,Staphylococcus aureus; [39],8 µg/mL
same,MIC90,Staphylococcus aureus; [39],8 µg/mL
same,MIC,Streptococcus pneumoniae; [19],8 µg/mL
same,MIC,Streptococcus pneumoniae; [20],4 µg/mL
same,MIC,Streptococcus pneumoniae; [21],4 µg/mL
same,MIC,Streptococcus pneumoniae; [22],> 32 µg/mL
same,MIC,Streptococcus pneumoniae; [23],16 µg/mL
same,MIC,Streptococcus pneumoniae; [24],32 µg/mL
same,MIC,"Streptococcus pneumoniae; Streptococcus pneumoniae, sp007, read-out: MIC",16 µg/mL
same,MIC,"Streptococcus pneumoniae; Streptococcus pneumoniae, sp008, read-out: MIC",32 µg/mL
same,MIC,Streptococcus pneumoniae; [25],32 µg/mL
same,MIC,Streptococcus pneumoniae; [26],> 32 µg/mL
same,MIC,Streptococcus pneumoniae; [27],> 32 µg/mL
same,MIC,Streptococcus pneumoniae; [28],32 µg/mL
same,MIC,Streptococcus pneumoniae; [29],32 µg/mL
same,MIC,"Streptococcus pneumoniae; Streptococcus pneumoniae, sp121, read-out: MIC",32 µg/mL
same,MIC,Streptococcus pneumoniae; [30],> 32 µg/mL
same,MIC,Streptococcus pneumoniae; [31],> 32 µg/mL
same,MIC,Streptococcus pneumoniae; [32],32 µg/mL
same,MIC,Streptococcus pneumoniae; [33],> 32 µg/mL
same,MIC50,Streptococcus pneumoniae; [40],32 µg/mL
same,MIC90,Streptococcus pneumoniae; [40],> 32 µg/mL
same,MIC50,Enterobacterales; [41],16 µg/mL
same,MIC90,Enterobacterales; [41],32 µg/mL
same,MIC range,Enterobacterales; [41],2 to 64 µg/mL
same,MIC,Enterobacterales; read-out: modal MIC,16 µg/mL
same,MIC,"Enterobacterales; wild-type strains of Escherichia coli or Klebsiella pneumoniae, read-out: antibacterial potency (MIC)",8 to 16 µg/mL
same,MIC,Acinetobacter baumannii; Acinetobacter baumannii ACM1320 (ATCC 17978),16 µg/mL
same,MIC,"Acinetobacter baumannii; Acinetobacter baumannii ACM1320 (ATCC 17978), read-out: MIC",72 µM
same,MIC,"Acinetobacter baumannii; Acinetobacter baumannii, 505 isolates of carbapenem-resistant A. baumannii, read-out: modal MIC",32 µg/mL
same,MIC,"Acinetobacter baumannii; Acinetobacter baumannii, AB1007 (no beta-lactamase), xeruborbactam 0 µg/ml, read-out: MIC",16 µg/mL
same,MIC,"Acinetobacter baumannii; Acinetobacter baumannii, ATCC17978, Acinetobacter baumannii ACM1320 (ATCC 17978), read-out: MIC",72 µM and 16 µg/mL
same,MIC,"Acinetobacter baumannii; Acinetobacter baumannii, ATCC17978, strain ATCC 17978 (Fig. 6), read-out: MIC",16 µg/mL
same,MIC,"Acinetobacter baumannii; Acinetobacter baumannii, pumpless strain of A. baumannii, read-out: MIC",18 µM and 4 µg/mL
same,MIC,"Acinetobacter baumannii; Acinetobacter baumannii, strain AB1007, wild type, read-out: MIC",16 µg/mL
same,MIC,Acinetobacter baumannii; [34],4 µg/mL
same,MIC,Acinetobacter baumannii; [35],16 µg/mL
same,MIC,Acinetobacter baumannii; [36],4 µg/mL
same,MIC,Acinetobacter baumannii; [37],32 µg/mL
same,MIC,Acinetobacter baumannii; [38],16 µg/mL
same,MIC,"Acinetobacter baumannii; Acinetobacter baumannii, strain AB1007, read-out: MIC",16 µg/mL
same,MIC50,Acinetobacter baumannii; [42],16 µg/mL
same,MIC90,Acinetobacter baumannii; [42],64 µg/mL
same,fold MIC decrease,Acinetobacter baumannii; adeIJK inactivation,4 fold
same,fold MIC increase,Acinetobacter baumannii; adeIJK overexpression,2 fold
